This note sets out measurements from patent publication US20030139374A1 (University of Texas, published 2003).

One data set has as its target T1, immobilized tTF (Homo sapiens, UniProt P13726).
T1 construct: Recombinant soluble Tissue Factor protein (amino acids 1-219) was extracted from the periplasmic space of transformed E. coli; His tag (only implied by the Ni-NTA purification); made in house; host or cells: E. coli (periplasmic secretion, vector pswc7)
Kind of data set: Real time binding of tTF to immobilized tTF (surface plasmon resonance). To be noted: tTF 30 μg/ml alone or preincubated with endotoxin or factor VIIa. For orientation: SPR reads the build-up and loss of mass on a sensor chip optically.

Data set [1] has as its target T2, Factor Xa generation (Factor VIIa, Factor X) (Homo sapiens, UniProt P08709).
T2 construct: purchased Sigma
Put plainly: Cell free two-stage coagulation assay. To be noted: FIG. 2. Format: biochemical. As to the method:
In vitro coagulation activity was tested in a cell free two-stage coagulation assay. Negatively charged phospholipids at a final concentration of 50 μM (phosphatidylserine and phosphatidylcholine from Sigma, Taufkirchen, Germany) in calcium buffer (50 mM Tris pH=8.1, 150 mM NaCl, 2 mg/ml BSA, 5 mM Ca^++) were mixed with Factor VIIa (Sigma, Taufkirchen, Germany) at 10 nM and with samples or controls and incubated for five min at 37° C. Factor X was added to a final concentration of 30 nM and samples were incubated for 5 min at room temperature. Finally, the chromogenic substrate S2765 (Haemochrom, Essen, Germany) was added in a 100 mM EDTA solution. Factor Xa generation as a measure of Tissue Factor activity was determined by the increase in the absorption at 405 nm.
Negatively charged phospholipids at a final concentration of 50 μM (phosphatidylserine and phosphatidylcholine from Sigma, St. Louis, Mo.) in calcium buffer (50 mM Tris pH=8.1, 150 mM NaCl, 2 mg/ml BSA, 5 mM Ca^++) were mixed with Factor VIIa (Sigma, St. Louis, Mo.) at 10 nM and with samples or controls and incubated for five minutes at 37° C. Factor X (Sigma, St. Louis, Mo.) was added to a final concentration of 30 nM and samples were incubated for 5 minutes at room temperature. […] Factor Xa generation as a measure of tissue factor activity was determined by the increase in the absorption at 405 nm.

The next data set deals with F9 sarcoma tumors. Put plainly: F9 sarcoma mouse model, tumor tissue necrosis. The class given is in vivo, balb/c nude mice. Particulars: endotoxin-free tTF 4 μg; three days after treatment. As to the method:
1×10^7 F9 sarcoma cells were injected subcutaneously into the right flank of balb/c nude mice. Subcutanous tumors were measured with a caliper in three perpendicular directions a, b, and c, and volumes calculated according to the formula V=π/6×a×b×c. Treatment was initiated when subcutaneous tumors reached a size of 150 to 300 μl.
Reagents were administered into the lateral tail vein.
Mice were closely observed after treatment for clinical signs of toxicity and clinical status was documented at defined time points. Three days after treatment, mice were sacrificed and tumors were harvested. Paraffin embedded tissues were stained with hematoxilin and eosin (H&E). Tissue sections were analyzed on a light microscope by two independent investigators and histological findings were documented. Tumor sections with necrotic areas were scanned with a GS-700 imaging densitometer (Biorad. Hercules, Calif.) and areas of necrosis were calculated as % of total section area.

The test system of the next data set is bEnd 3 cells. Kind of data set: Cell bound coagulation assay on stimulated bEnd 3 endothelial cells (factor Xa generation). Particulars: for Factor Xa generation due to Factor VIIa production: factor VII-only values subtracted. The class given is cell-based, murine.
The subject of data set [2] is L540rec human Hodgkin's lymphoma tumors. Kind of data set: Tumor tissue necrosis in L540rec tumor-bearing SCID mice treated with tTF and/or endotoxin. The class given is in vivo. As for the experimental part: For in vivo studies, a metastasizing mouse model for human Hodgkin's lymphoma was used. 1×10^7 L540rec cells were injected subcutaneously into the right flank of SCID mice resulting in a subcutaneous tumor with lymph node metastases in the regional lymph node stations. Subcutanous tumors were measured with a caliper in three perpendicular directions a, b, and c, and volumes calculated according to the formula V=π/6×a×b×c.
(§1) Treatment was initiated when subcutaneous tumors reached a size of 150 to 300 μl. Reagents were administered into the lateral tail vein.
(§2) Mice were closely observed after treatment for clinical signs of toxicity and clinical status was documented at defined time points (5 minutes. 10 minutes, 15 minutes, 30 minutes. 1 hour, 2 hours, 24 hours, 48 hours, 72 hours). Blood samples were taken from the tail vein at 1 hour, 2 hours and 24 hours to measure TNFα blood levels. Three days after treatment, the mice were anesthetized, blood samples were taken from the vena cava for coagulation tests, and an autopsy was performed to document any changes in gross pathology. Tumors, lymph node metastases and the major normal organs (heart, lung, brain, liver, kidney, colon, spleen, pancreas) were harvested and prepared for histological analysis.
(§3) Tissue samples harvested at the time of autopsy were fixed in 3% NBF (normal buffered formalin) and embedded in paraffin wax. Tissue blocs were cut, dewaxed and stained with hematoxilin and eosin (H&E). Tissue sections were analyzed on a light microscope by two independent investigators and histological findings were documented. Tumor sections with necrotic areas were scanned with a GS-700 imaging densitometer (Biorad, Hercules, Calif.) and areas of necrosis were calculated as % of total section area. Statistical Analysis was performed using SPSS software (SPSS Science Software, Erkrath, Germany) applying the Mann-Whitney-U-test for ungrouped data.

For another data set, the system named is A20 lymphoma cells. Put plainly: In vitro coagulation assay on A20 cells with B21-2/10H10 capture antibody. The class given is cell-based, mouse. Particulars: for coagulation time: cells alone 190 seconds.
Data set [3] is described as follows: Clinical signs of toxicity and histology of normal organs after tTF and/or endotoxin. The class given is in vivo, SCID mice. To be noted: for Symptoms: no endotoxin, tTF i.v. As to the method:
as §1, §2, §3

A short description of data set [4]: Plasma coagulation parameters (TAT, ATIII) three days after treatment. Format: in vivo, SCID mice. To be noted: tTF alone, no endotoxin, three days after i.v. treatment.

T2 sequence (P08709 61-212 limits assumed): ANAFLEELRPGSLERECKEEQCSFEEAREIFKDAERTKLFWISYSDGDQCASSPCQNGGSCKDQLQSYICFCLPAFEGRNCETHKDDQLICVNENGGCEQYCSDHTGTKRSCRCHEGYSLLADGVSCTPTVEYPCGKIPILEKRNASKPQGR
T2 sequence (P08709 213-466 limits assumed): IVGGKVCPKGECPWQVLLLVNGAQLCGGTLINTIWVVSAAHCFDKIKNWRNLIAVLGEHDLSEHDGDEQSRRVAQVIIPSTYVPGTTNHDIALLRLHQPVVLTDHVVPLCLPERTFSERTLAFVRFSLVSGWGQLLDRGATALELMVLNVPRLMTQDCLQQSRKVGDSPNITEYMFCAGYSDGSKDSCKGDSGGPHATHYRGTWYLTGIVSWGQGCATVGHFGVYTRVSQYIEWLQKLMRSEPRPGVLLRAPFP
T2 sequence (P13726 33-251 partner limits assumed): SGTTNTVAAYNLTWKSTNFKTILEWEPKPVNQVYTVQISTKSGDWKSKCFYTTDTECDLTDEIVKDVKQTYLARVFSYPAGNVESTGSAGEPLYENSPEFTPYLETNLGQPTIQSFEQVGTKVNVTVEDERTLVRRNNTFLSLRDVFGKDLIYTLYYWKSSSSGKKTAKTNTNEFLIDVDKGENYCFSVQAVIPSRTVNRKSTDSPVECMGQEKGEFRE
T1 sequence (P13726 33-251): as the sequence (P13726 33-251 partner limits assumed) above

With “tTF: truncated (soluble) human Tissue Factor, extracellular domain, amino acid 1-219 of the mature protein”, the “binding to immobilized tTF” value in the data set with immobilized tTF was “did not bind”. Moreover, the “coagulation activities before and after endotoxin removal (depyrogenation)” value in data set [1] was “the same”. For the same substance, the “average tumor tissue necrosis” value with F9 sarcoma tumors is 45%. Further, the “Factor Xa generation due to Factor VIIa production” value in the data set on bEnd 3 cells (stimulation with 0.5 μg/ml LPS (label LPS = medium only), 2 μg/ml factor VII and 0.01 μg/ml factor VIIa) is reported as 3.00 nkatS2222; with bEnd 3 cells (stimulation with Medium, mix with 2 μg/ml factor VII and 0.01 μg/ml factor VIIa), 0.70 nkatS2222; in the data set with bEnd 3 cells (stimulation with TNFα (label TNFα = medium only), 2 μg/ml factor VII and 0.01 μg/ml factor VIIa) it was 1.91 nkatS2222. The “Factor Xa generation” value was 2.00 nkatS2222 in the data set with bEnd 3 cells (stimulation with 0.5 μg/ml LPS, then incubation with labelled agent (label LPS = medium only), 0.5 μg/ml factor VIIa); 2.91 nkatS2222 with bEnd 3 cells (stimulation with 10 μg/ml LPS, then incubation with labelled agent (label LPS = medium only), 0.5 μg/ml factor VIIa); 0.40 nkatS2222 with bEnd 3 cells (stimulation with Medium, then incubation with the labelled agent (100 nM), mix with 0.5 μg/ml factor VIIa (VIIa not limiting)); 0.67 nkatS2222 with bEnd 3 cells (stimulation with TNFα (500 U/ml), then incubation with labelled agent (label TNFα = medium only), 0.5 μg/ml factor VIIa). Besides, the “% tumor necrosis” value in data set [2] (Table 2, tTF alone, no endotoxin, three days after i.v. treatment) is given as 4%. Further, in data set [2] (tTF alone (4 μg or 16 μg endotoxin-free tTF), no endotoxin), the “Percentage of tumor tissue necrosis” value is recorded as 0%. Also, the anti-tumor effect result in data set [2] (tTF alone at 100 μg) is given as “anti-tumor effects begin to appear”; in data set [2] (tTF alone at doses of from 4 μg to 16 μg), “no anti-tumor effect”. The coagulation time in the data set with A20 lymphoma cells (20,000 molecules per cell) was 140 s; with A20 lymphoma cells (300,000 molecules of tTF per cell) it was 40 s. Further, the “concentration at which plasma coagulated in 50 seconds” value with A20 lymphoma cells (bound via B21-2/10H10 to A20 cells) turned out to be 3 nM. The “time until fibrin strands were visible” value in the data set with A20 lymphoma cells (mouse plasma, tTF bound by B21-2/10H10, untreated cells 164 seconds) turned out to be 36 s. Moreover, in the data set with A20 lymphoma cells (presence of 0.1 nM Factor VIIa), the “increase in coagulation-inducing potency” value is reported as 2-5 fold. Also, in data set [3] (light microscopy, three days after treatment), the “histology of normal organs” value is listed as “No histological abnormalities”. In addition, the Symptoms entry in data set [3] (listed as TTF) is listed as “None”; in data set [3] (listed as endotoxin-free tTF), “no clinical signs of toxicity”. The same substance had a TAT in data set [4] of 25.4 ng/mL.
